This is an account of results in patent US20130177610A1, “NANO-METALLIC ALLOY DELIVERY SYSTEM FOR TREATMENT OF INFECTED CELLS AND LEGIONS” (UNIVERSITY OF NORTH CAROLINA AT GREENSBORO, priority 2008, published 2013).

In this assay the test system is S. Aureus in osteoblast cells. The assay can be described thus: Confocal microscopy live/dead staining (SYTO 9 / propidium iodide) of infected osteoblasts. In kind it is cell-based, Staphylococcus aureus. The note with it: gentamycine alone, FIG. 6C. On the procedure:
Confocal microscopy provided the evidence for intracellular bacteria killing. Osteoblast cells were cultured on 18 mm cover slips in a six well plate. Cells were treated with nanoparticles 1 ug/mL. The stain used was from invitrogen (L-7002) with two types of Dyes, SYTO 9 dye, 3,34 mM (Component A), 300 μL solution in DMSO and Propidium iodide PI, 20 mM (Component B), 300 μL solution in DMSO. The plates were incubated in the dark for 15 minutes after which the coverslips with growing co-cultured cells were gently removed and were placed on a glass slide containing 50 μL of 10%A glycerol with cells lying between the cover slip and the glass slide. The slide was observed under a confocal microscope using bandpass filters for red and green color. Images were obtained at different working distances and were superimposed by an Olympus CCD camera software to get images with dual color. […] Gentamycine is an antibiotic that is not capable of penetrating the bone cells membrane.

Take gentamycine: the “dead bacteria (red) in infected osteoblast cells, confocal image” value is given as “no significant numbers of dead bacteria”.
